Here are results for one compound from patent publication US20250127727A1, “IONIZABLE LIPIDS WITH BIOACTIVE MOTIFS” (GEORGIA TECH RESEARCH CORPORATION, priority 2021, published 2025).

This experiment has as its system Ai14 mice. The experiment is described as follows: Normalized delivery and fold enrichment from DNA barcode sequencing of tdTomato+ cells. The experiment is classed as in vivo. The settings on record: by LNP component; pool of 65 LNPs. The procedure:
Following characterization of the pool of 65 Pi-LNPs, the LNPs were injected into Ai14 mice at a total nucleic dose of 1.5 mg/kg (averaging a 0.023 mg total nucleic acid/kg/particle, for all 65 Pi-LNPs) (FIG. 2A). The Ai14 mice have a Lox-Stop-Lox-tdTomato construct downstream of a CAG promoter. Thus, if Cre mRNA is delivered into a target cell and is subsequently functionally translated into Cre protein, the cells become tdTomato+ (FIG. 2A). By isolating tdTomato+ cells using fluorescence-activated cell sorting (FACS, FIG. 4, FIG. 5) and sequencing the cells using next-generation sequencing, it was possible to isolate the DNA barcodes, associated with specific LNPs, within cells that were functionally transfected with Cre mRNA 26, 36-38 Three days after injection, liver, spleen, lung, and kidney were isolated and quantified the percentage of tdTomato+ cells from 14 different cell populations (FIG. 2B). […] The percentage of tdTomato+ quantified in liver endothelial cells and dendritic cells was <5%, and no delivery in lung and kidney was observed. […] From the barcode raw counts obtained through sequencing, the normalized delivery of each individual barcode was calculated. Briefly, the normalized delivery of a given barcode was calculated as the number of counts for that barcode divided by the counts for all N barcodes (Tables 1-3, below). […]

Take `CC(C)CCC[C@@H](C)[C@H]1CC[C@H]2[C@@H]3CC=C4C[C@@H](O)CC[C@]4(C)[C@H]3CC[C@]12C` [cholesterol]: the “fold enrichment (odds of being in top or bottom 10% of LNPs)” value was “outperformed 20α-OH cholesterol”.
